Blank lines part the entries; values can stand above or below the molecule they belong to.
Key:
[1] = Inhibition of coupled transcription-translation in Escherichia coli UC6782 […] using ortho-nitrophenyl-beta-galactoside as substrate after 30 mins by spectrophotometry
[2] = Binding affinity to Escherichia coli MRE600 50S ribosome after 10 mins by radioligand binding assay
[3] = Binding affinity to Escherichia coli A19 50S ribosome after 30 mins by scintillation counting method
[4] = molecular target: Bacterial 70S ribosome; test: Binding affinity to Escherichia coli A19 70S ribosome after 30 mins by scintillation counting method
[5] = Binding affinity to Escherichia coli MRE600 50S ribosome after 80 hrs by equilibrium dialysis method
[6] = Drug metabolism in human MCF7 cells assessed as polyglutamylation of compound at 2 uM after 24 hrs by liquid scintillation counting method; type: ADME, cell-based; conditions: read-out: Drug metabolism
[7] = Drug metabolism in human ZR-75B cells assessed as polyglutamylation of compound at 2 uM after 24 hrs by liquid scintillation counting method; type: ADME, cell-based; conditions: read-out: Drug metabolism
[8] = Drug metabolism in human MDA231 cells assessed as polyglutamylation of compound at 2 uM after 24 hrs by liquid scintillation counting method; type: ADME, cell-based; conditions: MDA231 (MDA-MB-231) cells, read-out: Drug metabolism

- IC50 [1]: 1.8 µM
- IC50 [2]: 20 µM
Compound: CC(=O)NC[C@H]1CN(c2ccc(N3CCN(C(=O)CO)CC3)c(F)c2)C(=O)O1 [EPEREZOLID]

Compound: COC[C@H]1O[C@@H](O[C@@H]2OC[C@@H]3O[C@@]4(OC[C@@H](OC(=O)c5c(C)cc(O)cc5O)[C@@H]5OCO[C@H]54)O[C@H]3[C@H]2O)[C@@H](OC)[C@@H](O)[C@@H]1O[C@@H]1O[C@H](C)[C@H](OC)[C@H](O[C@@H]2O[C@H](C)[C@H]3O[C@]4(C[C@@H](O)[C@H](O[C@H]5C[C@@H](O[C@H]6C[C@](C)([N+](=O)[O-])[C@@H](OC)[C@H](C)O6)[C@H](OC(=O)c6c(C)c(Cl)c(O)c(Cl)c6OC)[C@@H](C)O5)[C@@H](C)O4)O[C@]3(C)[C@@H]2O)[C@H]1O [EVERNIMICIN]
- Kd [3]: 0.16 µM
- Kd [4]: 0.084 µM

Compound: CCC[C@@H]1C[C@@H](C(=O)N[C@@H]([C@H]2O[C@H](SC)[C@H](O)[C@@H](O)[C@H]2O)[C@@H](C)O)N([14CH3])C1
- Kd [5]: 34 µM

- metabolised at 24 h, 2 µM [6]: 55.4%
- metabolised at 24 h, 2 µM [7]: 87.6%
- metabolised at 24 h, 2 µM [8]: 32%
Compound: CN(Cc1cnc2nc(N)nc(N)c2n1)c1ccc(C(=O)N[C@@H](CCC(=O)O)C(=O)O)cc1 [METHOTREXATE]

Reference: ChEMBL document CHEMBL4024745, “Causes and Significance of Increased Compound Potency in Cellular or Physiological Contexts” (J Med Chem, 2018)
